# Reference: patent US9255132B2, “Angiopoietin derived peptides” (Compugen Ltd., priority 2008, dated 2016)
# Residues, ends and D or L forms follow the SMILES beside them.
# System: avian chorioallantoic membrane (CAM)
# Type: in vivo, Leghorn fertilized eggs
# Details: for inhibition of vessel length: peptide 0.5 and 5 nmol/CAM, 48 h after treatment, vs vehicle control
# Method: CGEN-G6 [SEQ ID NO: 6], CGEN-F9 [SEQ ID NO: 7], CGEN-F12 [SEQ ID NO: 8], CGEN-C6 [SEQ ID NO: 9], CGEN-A11 [SEQ ID NO: 10], and CGEN-G2 [SEQ ID NO: 11], were analyzed for their ability to affect angiogenesis using the in ovo avian chorioallantoic membrane (CAM) model of angiogenesis, which is widely used as a model to examine compounds affecting angiogenesis (Richardson and Singh 2003, Curr Drug Targets Cardiovasc Haematol Disord., 3(2):155-85). Two positive controls were used: fumagillin as a general anti-angiogenic compound, and Tie2 neutralizing antibody as anti-angiogenic inhibitor of the Ang/Tie2 pathway. Leghorn fertilized eggs were incubated for 4 days at 37° C., when a window was opened on the egg's shell, exposing the CAM. Two different doses of peptides (0.5 and 5 nmol/CAM), Tie-2 neutralizing antibody (R&D Systems, Cat#AF313, 10 μg/ml; 0.4 μg/CAM) or fumagillin (Tocris Bioscience, Cat #1768; 5 μg/CAM) were applied in a 40 μl volume inside an area of 1 cm^2 (restricted by a plastic ring) of the CAM on day 9 of embryo development. The appropriate vehicle controls were also tested. Forty-eight hours after treatment and subsequent incubation at 37° C., CAMs were fixed in situ, excised from the eggs, placed on slides and left to air-dry. Pictures were taken through a stereoscope equipped with a digital camera and the total length of the vessels was measured using image analysis software (NIH Image). For each group a total of 17-24 eggs from three different experiments were used. Data are presented as means±SEM and expressed as % of vehicle control. Statistical analysis (ANOVA followed by Dunnett's post-hoc test) was performed using Graph Pad.
# FIG. 6 depict results obtained on vessel length with peptides CGEN-G6 [SEQ ID NO: 6], CGEN-F9 [SEQ ID NO: 7], CGEN-F12 [SEQ ID NO: 8], CGEN-C6 [SEQ ID NO: 9], CGEN-A11 [SEQ ID NO: 10], and CGEN-G2 [SEQ ID NO: 11], compared to Tie2 neutralizing antibody (Ab) and the anti-angiogenic compound fumagillin. Neutralizing Tie2 Ab blocked vessel length by 36%, while the angiogenesis inhibitor fumagillin blocked vessel length by 32%.
Compound,"inhibition of vessel length, rank among peptides (5 nmole)",inhibition of vessel length
"CC(=O)N[C@@H](CCC(=O)O)C(=O)N[C@H](C(=O)N[C@@H](Cc1ccccc1)C(=O)N[C@@H](CC(C)C)C(=O)N[C@@H](CO)C(=O)N[C@H](C(=O)N[C@@H](CC(N)=O)C(=O)N[C@@H](CCCCN)C(=O)N[C@@H](CC(C)C)C(=O)N[C@@H](CCC(=O)O)C(=O)N[C@@H](CC(N)=O)C(=O)N[C@@H](CCC(N)=O)C(N)=O)[C@@H](C)O)[C@@H](C)O [CGEN-A11, ETFLSTNKLENQ] (Ac-ETFLSTNKLENQ-NH2)",greatest effect,
CC[C@H](C)[C@H](NC(=O)[C@H](C)NC(=O)[C@H](CCCNC(=N)N)NC(=O)[C@H](CCC(=O)O)NC(=O)[C@H](CC(C)C)NC(=O)[C@H](CCCCN)NC(=O)[C@H](CCCCN)NC(=O)[C@H](CC(C)C)NC(=O)[C@H](Cc1c[nH]c2ccccc12)NC(=O)[C@H](CCC(N)=O)NC(=O)[C@@H](NC(=O)[C@H](CC(N)=O)NC(=O)[C@H](CC(N)=O)NC(=O)[C@H](CCC(N)=O)NC(=O)[C@H](CC(C)C)NC(=O)[C@H](C)NC(=O)[C@H](CCC(N)=O)NC(=O)[C@H](CCC(=O)O)NC(=O)[C@H](CC(C)C)NC(=O)[C@H](CCC(N)=O)NC(=O)[C@H](CCCCN)NC(=O)[C@@H](NC(=O)[C@H](CCC(N)=O)NC(=O)[C@H](CCC(N)=O)NC(=O)[C@@H](NC(C)=O)[C@@H](C)O)C(C)C)[C@@H](C)O)C(=O)N[C@@H](CCCCN)C(=O)N[C@H](C(=O)N[C@H](C(=O)N[C@@H](CC(C)C)C(N)=O)[C@@H](C)CC)[C@@H](C)O [CGEN-G2] (Ac-TQQVKQLEQALQNNTQWLKKLERAIKTIL-NH2),,did not inhibit angiogenesis
CSCC[C@H](NC(=O)[C@H](CC(C)C)NC(=O)[C@H](CC(=O)O)NC(C)=O)C(=O)N[C@@H](CCC(=O)O)C(=O)N[C@H](C(=O)N[C@H](C(=O)N[C@@H](CC(N)=O)C(=O)N[C@@H](CC(N)=O)C(=O)N[C@@H](CC(C)C)C(=O)N[C@@H](CC(C)C)C(=O)N[C@H](C(=O)N[C@@H](CCSC)C(=O)N[C@@H](CCSC)C(=O)N[C@@H](CO)C(=O)N[C@H](C(=O)N[C@@H](CO)C(=O)N[C@@H](CC(N)=O)C(=O)N[C@@H](CO)C(=O)N[C@@H](C)C(=O)N[C@@H](CCCCN)C(=O)N[C@@H](CC(=O)O)C(N)=O)[C@@H](C)O)[C@@H](C)O)C(C)C)[C@@H](C)O [CGEN-G6] (Ac-DLMETVNNLLTMMSTSNSAKD-NH2),,did not inhibit angiogenesis
